Results reported in US10983109B2, “Compositions and methods for treating B-lymphoid malignancies” (The Children's Hospital of Philadelphia, priority 2013, dated 2021).

Experiments:
Format in all cases: cell-based, mouse
protein synthesis = assay: Cycloheximide experiment in Pax5- and CD19-reconstituted Myc5 cells; conditions: 1 μg/ml, over 30 minutes
Source text: All figures except FIGS. 3E and 3H represent immunoblotting analyses of proteins indicated on the left. Actin was used as a loading control. In bracketed panels of FIG. 3A, whole cell lysates from Myc5 cells expressing HA-tagged wild-type or mutant (“mut”) ITAM were subjected to immune-precipitation with an α-HA antibody followed by immunoblotting with antibody against total Lyn, Tyr396-phospho-Lyn, or another α-HA antibody. In the bottom panels, lysates from the same cells were immunoblotted with antibodies against c-Myc, and β-actin. […] Mean fluorescent intensities (MFI) are shown in each plot. […] CHX was added at the concentration of 1 μg/ml for 7.5-30 minutes. In the bottom panels Myc-specific bands were quantitated by densitometry, normalized to actin, and plotted against time after treatment. Note that different exposures are shown for parental and Pax5/CD19-transduced cells to allow accurate band quantitation. […]
Myc5 stably transduced with either Pax5 or CD19 retroviral construct were seeded at 1×10^6/ml in 50 ml conical tubes received cycloheximide (Sigma) treatment at 1 μg/ml, while stimulation with 95% ethanol (sigma) served as control. […] Protein samples were resolved on 10% SDS-PAGE for Western blot analysis. c-Myc protein levels were quantified by densitometry using ImageJ 1.43 (National Institutes of Health) with quantitated values normalized to β-actin.

MYC5/CD19 cells = assay: WST cell proliferation assay of MYC5/CD19 cells; conditions: CD19mut/PI3K-disabled cells; GFP-only MYC5 cells as control
Experimental: (§1) FIG. 11A provides growth rates of MYC5 tumors expressing either wild type or mutant CD19. FIG. 11B provides immunoblotts of protein lysates obtained from individual tumors in FIG. 11A on day 23. […] Phosphorylation was assessed using Western blotting with phospho-specific antibodies. […] GFP-only-expressing MYC5 cells were used as a control. Cell proliferation was measured using the WST assay at indicated time points.
Proliferation of Myc5-M5 CD19 transduced cells in vitro were determined using cell proliferation reagent WST-1 (Roche Molecular Biochemicals). Cells were seeded at 1×10^3/well in 100 μl of culture medium were incubated for a total of 72 hours. Proliferation status was determined every 24 hours by incubating with 10 μl of the cell proliferation reagent WST-1 for 4 hours. The absorbance of the treated samples in triplicates were measured against a blank control was measured at 440 nM using a Synergy™ 2 microplate reader (BioTek Instruments).

[1] = tested on: Src family tyrosine kinases (SFTKs); assay: Western blotting with phospho-specific antibodies of MYC5 cells expressing WT or MUT CD19 treated with SU6656
Experimental: as §1

| SMILES | Myc levels (protein synthesis) | retrovirally transduced Pax5 or CD19 protein expression (protein synthesis) | cell proliferation (WST assay) (MYC5/CD19 cells) | phospho-JNK levels [1] |
| --- | --- | --- | --- | --- |
| C[C@@H]1C[C@@H]([C@H](O)CC2CC(=O)NC(=O)C2)C(=O)[C@@H](C)C1 [CHX, cycloheximide] | clearly down-regulated | no observable effects |  |  |
| CN(C)S(=O)(=O)c1ccc2c(c1)/C(=C/c1cc3c([nH]1)CCCC3)C(=O)N2 [SU6656] |  |  | selectively suppressed proliferation | reduced |
